Tests used:
RBCs [1] = test: Insertion efficiency: post-transformation supernatant solutions, tube serology; format: cell-based
Description: The post-transformation supernatant solutions (from Atri-sp-Ad-DOPE (I) at 0.08 mg/mL, 0.05 mg/mL and 0.03 mg/mL, and Btri-sp-Ad-DOPE (VI) at 0.6 mg/mL, 20 μL) were added neat and in a 1:2 dilution to washed, packed RBCs (60 μL). The tubes were incubated in a 37° C. waterbath for one hour, with mixing taking place every 15 minutes.
The transformed RBCs were washed 3× with PBS and then suspended in Cellstab™ at the appropriate concentration for serology testing.

RBCs [2] = test: Detectable transformation ability of synthetic glycolipids (agglutination); format: cell-based; conditions: agglutination with the appropriate antibody
Text: The synthetic glycolipid must also be able to insert into the membrane and be recognisable to the appropriate antibody for transformation to be detected by agglutination. Initial tests on the molecules were to establish solubility and thus eliminate those molecules that were unsuitable for use in the transformation of cells.

[3] = test system: group O red blood cells (RBCs); test: Diamed gel-card agglutination of group O RBCs transformed at 37° C. with synthetic glycolipids; format: cell-based, human; parameters: scale not given here; conditions: for Agglutination, Diamed gel-cards, Albaclone anti-A / Agglutination, Diamed gel-cards, Bioclone anti-A: 0.025 mg/mL
Description: (§1) Washed packed group O red blood cells (RBCs) (3 parts by volume) and the synthetic glycolipid solution (1 part by volume, varying concentrations) were added to an eppendorf tube. The tube was incubated in a 37° C. waterbath for one hour, mixing every 15 minutes. […]
(§2) Tube serology and Diamed gel-card results for RBCs transformed with the different synthetic molecule constructs are provided in Table 38. Results for the stability of the RBCs transformed with the different synthetic glycolipids at different concentrations are provided in Tables 39 to 44.

[4] = test system: group O red blood cells (RBCs); test: Tube serology of group O RBCs transformed at 37° C. with synthetic glycolipids; format: cell-based, human; parameters: Albaclone anti-A, Tube / Bioclone anti-A, Tube: scale not given here
Description: as §1, §2

CCCCCCCC/C=C\CCCCCCCC(=O)OC[C@H](COP(=O)(O)OCCNC(=O)CCCCC(=O)NCCCO[C@@H]1O[C@H](CO)[C@H](O)[C@H](O[C@H]2O[C@H](CO)[C@H](O)[C@H](O)[C@H]2NC(C)=O)[C@H]1O[C@@H]1O[C@@H](C)[C@@H](O)[C@@H](O)[C@@H]1O)OC(=O)CCCCCCC/C=C\CCCCCCCC [Atri-sp-Ad-DOPE (I)]
Score (tube serology) (RBCs [1]; 1:2, pre-trans conc 0.03 mg/mL): 0
Score (tube serology) (RBCs [1]; 1:2, pre-trans conc 0.05 mg/mL): 0
Score (tube serology) (RBCs [1]; 1:2, pre-trans conc 0.08 mg/mL): 0
Score (tube serology) (RBCs [1]; neat, pre-trans conc 0.03 mg/mL): 0
Score (tube serology) (RBCs [1]; neat, pre-trans conc 0.05 mg/mL): 0
Score (tube serology) (RBCs [1]; neat, pre-trans conc 0.08 mg/mL, 37° C. 1 h): 0
Detectable transformation ability (RBCs [2]): Yes
Albaclone anti-A, Diamed ([3]; 0.01 mg/mL): 0
Bioclone anti-A, Diamed ([3]; 0.01 mg/mL): 0
Agglutination, Diamed gel-cards, Albaclone anti-A ([3]; Day 2, Alsevers): 0
Agglutination, Diamed gel-cards, Albaclone anti-A ([3]; Day 2, Cellstab): 0
Agglutination, Diamed gel-cards, Albaclone anti-A ([3]; Day 8, Alsevers): 0
Agglutination, Diamed gel-cards, Albaclone anti-A ([3]; Day 8, Cellstab): 0
Agglutination, Diamed gel-cards, Albaclone anti-A ([3]; Day 15, Alsevers): 0
Agglutination, Diamed gel-cards, Albaclone anti-A ([3]; Day 15, Cellstab): 0
Agglutination, Diamed gel-cards, Albaclone anti-A ([3]; Day 22, Alsevers): 0
Agglutination, Diamed gel-cards, Bioclone anti-A ([3]; Day 22, Alsevers): w+
Agglutination, Diamed gel-cards, Albaclone anti-A ([3]; Day 22, Cellstab): 0
Agglutination, Diamed gel-cards, Albaclone anti-A ([3]; Day 29, Alsevers): 0
Agglutination, Diamed gel-cards, Bioclone anti-A ([3]; Day 29, Alsevers): w+
Agglutination, Diamed gel-cards, Albaclone anti-A ([3]; Day 29, Cellstab): 0
Agglutination, Diamed gel-cards, Albaclone anti-A ([3]; Day 43, Alsevers): w+
Agglutination, Diamed gel-cards, Albaclone anti-A ([3]; Day 43, Cellstab): 0
Agglutination, Diamed gel-cards, Albaclone anti-A ([3]; Day 50, Alsevers): w+
Agglutination, Diamed gel-cards, Albaclone anti-A ([3]; Day 50, Cellstab): 0
Agglutination, Diamed gel-cards, Albaclone anti-A ([3]; Day 57, Cellstab): 0
Agglutination, Diamed gel-cards, Bioclone anti-A ([3]; Day 57, Cellstab): w+
Agglutination, Diamed gel-cards, Albaclone anti-A ([3]; Day 63, Cellstab): 0
Agglutination, Diamed gel-cards, Bioclone anti-A ([3]; Day 63, Cellstab): 0
Agglutination, Diamed gel-cards, Albaclone anti-A ([3]; Day 71, Cellstab): 0
Agglutination, Diamed gel-cards, Bioclone anti-A ([3]; Day 71, Cellstab): 0
Agglutination, Diamed gel-cards, Albaclone anti-A ([3]; Day 86, Cellstab): 0
Agglutination, Diamed gel-cards, Bioclone anti-A ([3]; Day 86, Cellstab): 0
Albaclone anti-A, Tube ([4]; 0.01 mg/mL): 0
Bioclone anti-A, Tube ([4]; 0.01 mg/mL): 0
Albaclone anti-A, Tube ([4]; 0.02 mg/mL): 0
Bioclone anti-A, Tube ([4]; 0.02 mg/mL): 0
Agglutination, manual tube serology, Albaclone anti-A ([4]; 0.025 mg/mL, Day 8, Alsevers): w+
Agglutination, manual tube serology, Albaclone anti-A ([4]; 0.025 mg/mL, Day 8, Cellstab): vw
Agglutination, manual tube serology, Albaclone anti-A ([4]; 0.025 mg/mL, Day 15, Alsevers): 0
Agglutination, manual tube serology, Bioclone anti-A ([4]; 0.025 mg/mL, Day 15, Alsevers): Vw
Agglutination, manual tube serology, Albaclone anti-A ([4]; 0.025 mg/mL, Day 15, Cellstab): 0
Agglutination, manual tube serology, Albaclone anti-A ([4]; 0.025 mg/mL, Day 22, Alsevers): 0
Agglutination, manual tube serology, Bioclone anti-A ([4]; 0.025 mg/mL, Day 22, Alsevers): w+
Agglutination, manual tube serology, Albaclone anti-A ([4]; 0.025 mg/mL, Day 44, Cellstab): w+
Agglutination, manual tube serology, Bioclone anti-A ([4]; 0.025 mg/mL, Day 44, Cellstab): w+
Albaclone anti-A, Tube ([4]; 0.03 mg/mL): 0
Bioclone anti-A, Tube ([4]; 0.03 mg/mL): w+
Albaclone anti-A, Tube ([4]; 0.04 mg/mL): w+
Albaclone anti-A, Tube ([4]; 0.05 mg/mL): w+
Agglutination, manual tube serology, Albaclone anti-A ([4]; 0.05 mg/mL, Day 15, Cellstab): w+

Source: patent publication US10858384B2, “Synthetic molecule constructs” (KODE BIOTECH LIMITED, priority 2004, dated 2020)
